This is an account of results in article PMC10058425, “Exploring pta Alternatives in the Development of Ruthenium–Arene Anticancer Compounds” (Molecules, 2023).

One may read the IC50 as the midpoint of a concentration-inhibition curve. The Ki is a dissociation constant, usually derived from enzyme kinetics or from competition with a known ligand. Read a high Ki as weaker binding.

Several values for one entry are separate records, joined by “and”; a condition that tells them apart may be missing. Equal entries are not always repeated.

In assay [1] the test system is MCF7 (breast adenocarcinoma). The experiment in a line: MTT cell viability assay, MCF7. The conditions noted are these: 24 h of incubation, read-out: IC50 ± SD on MCF7. It is filed as cell-based, Human. The protocol:
(§1) Cell viability studies were determined by the MTT assay for complexes 1–8 toward MCF7 (breast adenocarcinoma), MDA-MB-231 (triple-negative breast adenocarcinoma), MG-63 (osteosarcoma), and HT-29 (colorectal carcinoma) after 24 h of incubation with new ruthenium compounds. Cisplatin was used as antitumor clinical reference. The three solid tumors selected for the cell viability study were chosen due to high incidence and the low efficacy of the current treatments. The two breast cancer cell lines used in this study represent two of the most relevant subtypes of breast cancer (MCF7: receptor-estrogen-positive breast cancer subtype; MDA-MB-231: triple-negative breast cancer subtype).
(§2) Human breast cancer cell lines (MCF-7 and MDA-MB-231), human bone cancer cell line (MG-63), and human colorectal cancer cell line (HT-29) were grown in Dulbecco’s modified Eagle’s medium (DMEM) containing 10% fetal bovine serum (FBS), 100 IU/mL penicillin, and 100 μg/mL streptomycin at 37 °C in 5% CO2 atmosphere. These cancer cell lines were grown in a […] until they reached 70–80% confluence. Then, the cells were subcultured using TrypLE TM. For experiments, cells were grown in multi-well plates. Dulbecco’s modified Eagle’s medium (DMEM) and TrypLE^TM were purchased from Gibco (Gaithersburg, MD, USA), and fetal bovine serum (FBS) was purchased from Internegocios (Argentina). After 24 h, the monolayers were washed with DMEM and incubated under different conditions according to the experiments. Tissue culture materials were purchased from Corning (Princeton, NJ, USA).
(§3) The 3-(4,5-dimethylthiazol-2-yl)-2,5-diphenyltetrazolium bromide (MTT) assay was performed according to Mosmann. Briefly, cells were seeded in a 96-well dish, allowed to attach for 24 h, and treated with different concentrations of complexes […] (2.5–100 µM) at 37 °C for 24 h. Afterward, the medium was changed and the cells were incubated with 0.5 mg/mL MTT under normal culture conditions for 3 h. Cell viability was marked by conversion of the tetrazolium salt MTT to a colored formazan by mitochondrial dehydrogenases. Color development was measured spectrophotometrically with a microplate reader multiskan FC (Thermo scientific) at 570 nm after cell lysis in DMSO (100 µL per well). Cell viability was plotted as the percentage of the control value.
Background: Formazan colour is commonly taken as a measure of viable cells.

The next assay has as its system MG-63 (osteosarcoma). Briefly: MTT cell viability assay, MG-63. It is filed as cell-based, Human. The conditions noted are these: 24 h of incubation, read-out: IC50 ± SD on MG-63. How it is done:
as §1, §2, §3

Assay [2] concerns HT-29 (colorectal carcinoma). Briefly: MTT cell viability assay, HT-29. It is filed as cell-based, Human. The note with it: for IC50: 24 h of incubation, read-out: IC50 ± SD on HT-29. How it is done: as §1, §2, §3
Assay [3] deals with MDA-MB-231 (triple-negative breast adenocarcinoma). The experiment in a line: MTT cell viability assay, MDA-MB-231. It is filed as cell-based, Human. The conditions noted are these: for IC50: MTT, 24 h of incubation, read-out: IC50 ± SD on MDA-MB-231. How it is done:
as §1, §2, §3

Assay [4] concerns the target Glutathione S-transferase from horse liver (GST). Briefly: GST inhibition assay. It is filed as biochemical. The conditions noted are these: for Ki: Dixon plots, substrate 200, 400, 800 μM; for IC50 / GST IC50: substrate 1-chloro-2,4-dinitrobenzene, pH 6.5, 25 °C. The protocol: The activity of GST was measured according to the method described by Habig et al. (1974). Stock solutions of 1–8 (1 mg/mL) were prepared in 100% methanol (MeOH). Then, stock solutions of 1–8 and negative controls were added to the wells and progressively diluted in 100 mM sodium phosphate buffer (pH 6.5) at a final volume of 50 μL. 1-Chloro-2,4-dinitrobenzene (Sigma-Aldrich Co., St. Louis, MO, USA) was dissolved in EtOH to obtain a 50 mM solution, then diluted with 100 mM sodium phosphate buffer (pH 6.5) to a final concentration of 4 mM. This solution (50 μL) and solution of 2 mM reduced glutathione (100 μL), dissolved in the same buffer were added into the microtiter plate wells. Glutathione S-transferase from horse liver (GST; Sigma-Aldrich Co., St. Louis, MO, USA) was used as the source of enzyme and dissolved in 100 mM sodium phosphate buffer (pH 6.5). 50 μL of enzyme solution was added into wells to start the reaction. The final enzyme concentration was 0.044 U/mL. A blank reaction was performed with the appropriate dilution of MeOH. The reaction was followed spectrophotometrically at 340 nm and at 25 °C for 4 min using a Cytation 3 cell imaging multi-mode reader from BioTek (BioTek, Winooski, VT, USA). Each measurement was repeated at least three times. For determination of inhibitory constants (Ki), the kinetics were monitored using three different final substrate concentrations (200, 400, and 800 μM, respectively).

Assay [5] relates to MCF7, MDA-MB-231, MG-63, and HT-29 cell lines. The experiment in a line: MTT cell viability assay, all cell lines tested. It is filed as cell-based, Human. The note with it: 24 h, span over all cell lines, read-out: IC50 in all cancer cell lines tested. How it is done: as §1
Human breast cancer cell lines (MCF-7 and MDA-MB-231), human bone cancer cell line (MG-63), and human colorectal cancer cell line (HT-29) were grown in Dulbecco’s modified Eagle’s medium (DMEM) containing 10% fetal bovine serum (FBS), 100 IU/mL penicillin, and 100 μg/mL streptomycin at 37 °C in 5% CO2 atmosphere. These cancer cell lines were grown in a […] until they reached 70–80% confluence. […]
The 3-(4,5-dimethylthiazol-2-yl)-2,5-diphenyltetrazolium bromide (MTT) assay was performed according to Mosmann. […] Color development was measured spectrophotometrically with a microplate reader multiskan FC (Thermo scientific) at 570 nm after cell lysis in DMSO (100 µL per well). […]

As to `N.N.[Cl][Pt][Cl]` [Cisplatin, reference compound], the concentration for half-maximal inhibition (IC50) in assay [1] stood at 42 ± 3.2 µM; in the assay with MG-63 (osteosarcoma), 39 ± 1.8 µM; in assay [2] (MTT), 180 ± 6 µM; in assay [3] it was 131 ± 18 µM.
For the compound `Cc1ccc(C(C)C)cc1.[Cl-].[O-]n1ccccc1=S.[Ru+2]` [Compound 1, [(η^6-cymene)(Ru)(pyrithionato)Cl]], the IC50 was over 100 µM in assay [1]; over 100 µM in the assay on MG-63 (osteosarcoma); over 100 µM in assay [2] (MTT); over 100 µM in assay [3]; 3.15 ± 2.5 µM in assay [4]. This compound also registered a Ki in assay [4] of 0.75 µM.
Take `C1N2CN3CN1CP(C2)C3.Cc1ccc(C(C)C)cc1.F[P-](F)(F)(F)(F)F.[O-]n1ccccc1=S.[Ru+2]` [Compound 2, [(η^6-cymene)(Ru)(pyrithionato)(pta)]PF6]: the IC50 (in assay [1]; in the assay on MG-63 (osteosarcoma); in assay [2] (MTT); in assay [3]) was over 100 µM each time. Also, the “GST IC50” value in assay [4] was “/ (no inhibitory activity in tested concentration range (<125 µg/mL))”.
As to `CCO[P](OCC)(OCC)[Ru+]1[O]N2C=CC=CC2=[S]1.Cc1ccc(C(C)C)cc1.F[P-](F)(F)(F)(F)F` [Compound 4, [(η^6-p-cym)Ru(κ^2-O,S-C5H4NOS)(P(OEt)3)]PF6], the IC50 in assay [1] was 45 µM and 45.5 µM; in the assay on MG-63 (osteosarcoma), over 100 µM; in assay [2] (MTT) it was over 100 µM; in assay [3], over 100 µM; in assay [4], 59.5 ± 0.9 µM.
On to `C1=CC2=[S][Ru+]([P](c3ccccc3)(c3ccccc3)c3ccccc3)[O]N2C=C1.Cc1ccc(C(C)C)cc1.F[P-](F)(F)(F)(F)F` [Compound 6, [(η^6-p-cym)Ru(κ^2-O,S-C5H4NOS)(PPh3)]PF6], for which the IC50 came to 21.2 ± 3.2 µM in assay [1]; 21.2 ± 1.7 µM in the assay on MG-63 (osteosarcoma); 30.2 ± 1.4 µM in assay [2] (MTT); 10.8 ± 1 µM in assay [3]; 11.8 ± 1.1 µM in assay [4]. Besides, the “IC50 fold lower than cisplatin on HT-29 cells” value in assay [2] (versus cisplatin) is “six-fold”. The “IC50 fold lower than cisplatin on MDA-MB-231 cells” value in assay [3] (versus cisplatin) is given as “twelve-fold”. Besides, the affinity in assay [4] corresponds to a Ki of 1.3 µM.
Take `C1=CC2=[S][Ru+]([P](Oc3ccccc3)(Oc3ccccc3)Oc3ccccc3)[O]N2C=C1.Cc1ccc(C(C)C)cc1.F[P-](F)(F)(F)(F)F` [Compound 7, [(η^6-p-cym)Ru(κ^2-O,S-C5H4NOS)(P(OPh)3)]PF6]: the 50% inhibitory concentration (IC50) in assay [1] is 33.7 ± 6.3 µM; with MG-63 (osteosarcoma), 28.2 ± 2.5 µM; in assay [2] (MTT) it was over 100 µM; in assay [3], 18 ± 1.7 µM; in assay [4], 2.88 ± 0.9 µM. Further, in assay [2] (MTT, 24 h), the “anticancer effect on colorectal cancer cells” value is “did not exert anticancer effect”. The Ki in assay [4] stood at 3.67 µM.
With `C1=CC2=[S][Ru+]([As](c3ccccc3)(c3ccccc3)c3ccccc3)[O]N2C=C1.Cc1ccc(C(C)C)cc1.F[P-](F)(F)(F)(F)F` [Compound 8, [(η^6-p-cym)Ru(κ^2-O,S-C5H4NOS)(AsPh3)]PF6], the 50% inhibitory concentration (IC50) is 35.3 ± 12.1 µM in assay [1]; 50.3 ± 2.5 µM with MG-63 (osteosarcoma); 40.8 ± 8.5 µM in assay [2] (MTT); 35 to 50 µM in assay [5]; 35.8 ± 11.4 µM in assay [3]; 2.15 ± 0.4 µM in assay [4]. Besides, the inhibitory constant (Ki) in assay [4] was 0.74 µM.
For “[(η^6-p-cym)Ru(κ^2-O,S-C5H4NOS)(cap)]PF6 [Compound 3]”, the IC50 (in assay [1]; in the assay with MG-63 (osteosarcoma); in assay [2] (MTT); in assay [3]) was over 100 µM in each case. For the same compound, the “GST IC50” value in assay [4] is listed as “/ (no inhibitory activity in tested concentration range (<125 µg/mL))”.
